Laboratory results published in patent US9745310B2 (SK BIOPHARMACEUTICALS CO., LTD., priority 2015, dated 2017).

Target: human mGluR5 receptor (Homo sapiens (Human), UniProt P41594)
Assay: Calcium influx assay based on fluorescence (mGluR5 PAM activity)
Details: human mGluR5 receptor-overexpressed HEK293 cell line; L-glutamate EC20; Fluo-4, FLIPR
Method: Efficacy as a positive allosteric modulator (PAM) of mGluR5 of the compounds of the Examples was tested as follows:
Calcium Influx Assay Based on Fluorescence
Ca^2+ (calcium) influx assay is an experiment for measuring the activity of a positive allosteric modulator of mGluR5 receptor in which human mGluR5 receptor-overexpressed HEK293 cell line is used. The day before the experiment, cells were prepared in a cell culture medium (DMEM, 5% FBS) with the density of 80,000/well, and 100 μl of cells were dispensed into each well of a poly-D-lysine-coated 96-well plate. Cells were incubated in a 5% CO2, 37° C. incubator. The next day, the cell culture medium was removed from the plate, and 100 μl of 1× Fluo-4 calcium indicator diluted with a buffer (1× Hank's balanced salt solution, 20 mM HEPES, 2.5 mM probenecid) were added to each well and incubated at 37° C. for 1 hour. The compound stock solutions were prepared in 100% DMSO, and the compounds were serially diluted with a ¼ dilution to 6 or 7 concentrations (final concentration was 10 μM to 10 nM). The diluted compound solutions were added to the plate with 0.1 to 0.2% of final DMSO concentration. 1 hour after the addition of Fluo-4 calcium indicator, L-glutamate (EC20 concentration) and the test compound solutions were added to the plate, and Ca^2+ reaction was then measured by FLIPR at room temperature. The activity of the compounds was standardized on the basis of the results of maximum value-minimum value of fluorescent reaction, and the activity value was calculated on the basis that no activity on glutamate EC20 is 0% and the reaction to glutamate maximum value is 100%.

Sequence of human mGluR5 receptor (P41594 21-1212): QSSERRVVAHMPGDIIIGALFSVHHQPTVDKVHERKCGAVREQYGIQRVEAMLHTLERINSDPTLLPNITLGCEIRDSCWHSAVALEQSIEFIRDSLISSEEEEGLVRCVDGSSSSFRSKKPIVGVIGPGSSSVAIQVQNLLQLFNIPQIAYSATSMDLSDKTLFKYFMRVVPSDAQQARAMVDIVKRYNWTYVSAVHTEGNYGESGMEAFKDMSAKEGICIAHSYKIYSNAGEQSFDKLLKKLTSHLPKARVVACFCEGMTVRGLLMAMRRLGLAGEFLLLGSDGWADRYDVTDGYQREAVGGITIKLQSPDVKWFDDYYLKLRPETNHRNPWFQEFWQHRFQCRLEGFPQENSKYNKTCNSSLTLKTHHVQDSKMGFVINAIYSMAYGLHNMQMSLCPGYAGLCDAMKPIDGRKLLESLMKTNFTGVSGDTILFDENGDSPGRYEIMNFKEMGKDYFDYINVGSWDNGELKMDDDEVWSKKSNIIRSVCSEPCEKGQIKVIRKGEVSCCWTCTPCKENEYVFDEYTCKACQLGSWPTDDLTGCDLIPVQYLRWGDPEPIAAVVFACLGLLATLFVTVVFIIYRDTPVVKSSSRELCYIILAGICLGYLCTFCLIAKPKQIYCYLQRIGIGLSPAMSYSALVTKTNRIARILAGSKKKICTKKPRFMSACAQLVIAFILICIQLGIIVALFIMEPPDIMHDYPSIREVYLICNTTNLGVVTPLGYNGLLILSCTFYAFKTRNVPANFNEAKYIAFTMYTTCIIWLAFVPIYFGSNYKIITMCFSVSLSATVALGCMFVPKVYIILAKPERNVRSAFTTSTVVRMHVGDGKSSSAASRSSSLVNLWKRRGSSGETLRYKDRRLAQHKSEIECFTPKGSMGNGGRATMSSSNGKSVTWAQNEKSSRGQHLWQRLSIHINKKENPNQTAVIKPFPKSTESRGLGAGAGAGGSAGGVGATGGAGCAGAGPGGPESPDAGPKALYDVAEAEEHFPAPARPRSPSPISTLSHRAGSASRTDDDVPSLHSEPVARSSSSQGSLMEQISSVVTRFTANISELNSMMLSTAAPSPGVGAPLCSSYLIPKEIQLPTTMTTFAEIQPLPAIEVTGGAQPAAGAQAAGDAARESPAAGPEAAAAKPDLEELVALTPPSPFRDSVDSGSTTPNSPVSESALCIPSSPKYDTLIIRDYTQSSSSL

Structure (SMILES) | EC50
Oc1cc(F)ccc1-c1cnc2nc(COc3cccnc3)cn2c1 [Example 150, 6-(4-fluoro-2-hydroxyphenyl)-2-(pyridin-3-yloxymethyl)imidazo[1,2-a]pyrimidine] | 500 to 1000 nM
COc1cc(-c2cnc3nc(COc4ccc(F)cc4)cn3c2)ccn1 [Example 99, 2-[(4-fluorophenoxy)methyl]-6-(2-methoxy-4-pyridyl)imidazo[1,2-a]pyrimidine] | 500 to 1000 nM
Fc1ccc(-c2cnc3nc(COc4ccccc4)cn3c2)cc1F [Example 19, 6-(3,4-difluorophenyl)-2-phenoxymethylimidazo[1,2-a]pyrimidine] | 500 to 1000 nM
Fc1cccc(OCc2cn3cc(-c4cccnc4F)cnc3n2)c1 [Example 82, 2-[(3-fluorophenoxy)methyl]-6-(2-fluoro-3-pyridyl)imidazo[1,2-a]pyrimidine] | 100 to 500 nM
Fc1ccc(-c2cnc3nc(COc4cncc(F)c4)cn3c2)cc1 [Example 171, 6-(4-fluorophenyl)-2-[(5-fluoro-3-pyridyl)oxymethyl)imidazo[1,2-a]pyrimidine] | 100 to 500 nM
Cc1cccc(C)c1-c1cnc2nc(COc3ccc(F)cc3)cn2c1 [Example 50, 6-(2,6-dimethylphenyl)-2-(4-fluorophenoxymethyl)imidazo[1,2-a]pyrimidine] | 500 to 1000 nM
Fc1ccc(-c2cnc3nc(COc4ccccn4)cn3c2)c(F)c1 [Example 105, 6-(2,4-difluorophenyl)-2-(pyridin-2-yloxymethyl)imidazo[1,2-a]pyrimidine] | 100 to 500 nM
Fc1ccc(-c2cnc3nc(COc4ccccc4)cn3n2)c(F)c1 [Example 178, 2-(2,4-difluorophenyl)-6-(phenoxymethyl)imidazo[1,2-b][1,2,4]triazine] | 100 to 500 nM
Cc1cc(F)ccc1-c1cnc2nc(COc3ccnc(F)c3)cn2n1 [Example 184, 2-(4-fluoro-2-methylphenyl)-6-((2-fluoropyridin-4-yloxy)methyl)imidazo[1,2-b][1,2,4]triazine] | 100 to 500 nM
CSc1cc(F)ccc1-c1cnc2nc(COc3ccccn3)cn2c1 [Example 138, 6-(4-fluoro-2-methylsulfanyl-phenyl)-2-(2-pyridyloxymethyl)imidazo[1,2-a]pyrimidine] | 100 to 500 nM
Fc1ccc(-c2cnc3nc(COc4ccnc(F)c4)cn3n2)c(F)c1 [Example 183, 2-(2,4-difluorophenyl)-6-((2-fluoropyridin-4-yloxy)methyl)imidazo[1,2-b][1,2,4]triazine] | 100 to 500 nM
Cc1cc(F)ccc1-c1cnc2nc(COc3cccc(F)n3)cn2n1 [Example 191] | 500 to 1000 nM
COc1cc(F)ccc1-c1cnc2nc(COc3cccnc3)cn2c1 [Example 147, 6-(4-fluoro-2-methoxyphenyl)-2-(pyridin-3-yloxymethyl)imidazo[1,2-a]pyrimidine] | 500 to 1000 nM
Nc1cc(-c2cnc3nc(COc4ccccn4)cn3c2)ccc1F [Example 134, 2-fluoro-5-[2-(2-pyridyloxymethyl)imidazo[1,2-a]pyrimidin-6-yl]aniline] | 100 to 500 nM
Clc1cnccc1-c1cnc2nc(COc3ccccc3)cn2c1 [Example 36, 6-(3-chloropyridin-4-yl)-2-phenoxymethylimidazo[1,2-a]pyrimidine] | 100 to 500 nM
COc1cc(Cl)ccc1-c1cnc2nc(COc3ccccc3)cn2c1 [Example 22, 6-(4-chloro-2-methoxyphenyl)-2-phenoxymethylimidazo[1,2-a]pyrimidine] | 500 to 1000 nM
Fc1ccc(OCc2cn3cc(-c4cnccc4Cl)cnc3n2)cc1 [Example 87, 6-(4-chloro-3-pyridyl)-2-[(4-fluorophenoxy)methyl]imidazo[1,2-a]pyrimidine] | 500 to 1000 nM
Fc1cc(-c2cnc3nc(COc4ccccc4)cn3c2)ccn1 [Example 35, 6-(2-fluoropyridin-4-yl)-2-phenoxymethylimidazo[1,2-a]pyrimidine] | 100 to 500 nM
c1ccc(OCc2cn3cc(-c4ccccc4)cnc3n2)cc1 [Example 2, 2-phenoxymethyl-6-phenylimidazo[1,2-a]pyrimidine] | 100 to 500 nM
Cc1cc(-c2cnc3nc(COc4ccccc4)cn3c2)cnc1F [Example 39, 6-(6-fluoro-5-methyl-3-pyridyl)-2-phenoxymethylimidazo[1,2-a]pyrimidine] | 100 to 500 nM
Cc1c(F)cccc1-c1cnc2nc(COc3ccc(F)cn3)cn2c1 [Example 124, 6-(3-fluoro-2-methyl-phenyl)-2-[(5-fluoro-2-pyridyl)oxymethyl)imidazo[1,2-a]pyrimidine] | 100 to 500 nM

Structure (SMILES) | EC50
Cc1ccc(-c2cnc3nc(COc4ccccn4)cn3c2)c(F)c1 [Example 117, 6-(2-fluoro-4-methyl-phenyl)-2-(2-pyridyloxymethyl)imidazo[1,2-a]pyrimidine] | 100 to 500 nM
Cc1ccc(N)cc1-c1cnc2nc(COc3ccccc3)cn2c1 [Example 11, 6-(3-amino-6-methylphenyl)-2-phenoxymethylimidazo[1,2-a]pyrimidine] | 100 to 500 nM
Oc1ccccc1-c1cnc2nc(COc3ccccc3)cn2c1 [Example 16, 6-(2-hydroxyphenyl)-2-phenoxymethylimidazo[1,2-a]pyrimidine] | 500 to 1000 nM
Cc1cc(F)ccc1-c1cnc2nc(COc3ccc(F)cc3)cn2c1 [Example 48, 6-(4-fluoro-2-methylphenyl)-2-(4-fluorophenoxymethyl)imidazo[1,2-a]pyrimidine] | 100 to 500 nM
Cc1cc(F)ccc1-c1cnc2nc(COc3cncc(Cl)c3)cn2c1 [Example 160, 6-(4-fluoro-2-methylphenyl)-2-(5-chloropyridin-3-yloxymethyl)imidazo[1,2-a]pyrimidine] | 500 to 1000 nM
Cc1ccncc1-c1cnc2nc(COc3ccc(F)cc3)cn2c1 [Example 78, 2-[(4-fluorophenoxy)methyl]-6-(4-methyl-3-pyridyl)imidazo[1,2-a]pyrimidine] | 100 to 500 nM
Fc1ccc(OCc2cn3cc(-c4ccc(C(F)(F)F)nc4)cnc3n2)cc1 [Example 65, 2-[(4-fluorophenoxy)methyl]-6-[6-(trifluoromethyl)-3-pyridyl]imidazo[1,2-a]pyrimidine] | 100 to 500 nM
Fc1ccc(-c2cnc3nc(COc4ccccn4)cn3c2)c2c1OCO2 [Example 110, 6-(7-fluoro-2H-benzo[1,3]dioxol-4-yl)-2-(pyridin-2-yloxymethyl)imidazo[1,2-a]pyrimidine] | 100 to 500 nM
Fc1ccc(-c2cnc3nc(COc4ccncc4)cn3n2)c(F)c1 [Example 179, 2-(2,4-difluorophenyl)-6-((pyridin-4-yloxy)methyl)imidazo[1,2-b][1,2,4]triazine] | 100 to 500 nM
Fc1ccc(-c2cnc3nc(COc4cccnc4)cn3c2)cc1 [Example 146, 6-(4-fluorophenyl)-2-(pyridin-3-yloxymethyl)imidazo[1,2-a]pyrimidine] | 500 to 1000 nM
Oc1cc(F)ccc1-c1cnc2nc(COc3cccc(F)c3)cn2c1 [Example 57, 5-fluoro-2-[2-[(3-fluorophenoxy)methyl]imidazo[1,2-a]pyrimidin-6-yl]phenol] | 100 to 500 nM
Fc1ccc(OCc2cn3cc(-c4ccc(C(F)(F)F)nc4)cnc3n2)nc1 [Example 131, 2-[(5-fluoro-2-pyridyl)oxymethyl]-6-[6-(trifluoromethyl)-3-pyridyl]imidazo[1,2-a]pyrimidine] | 100 to 500 nM
Cc1cc(F)ccc1-c1cnc2nc(COc3ccc(F)cn3)cn2n1 [Example 192, 2-(4-fluoro-2-methyl-phenyl)-6-[(5-fluoro-2-pyridyl)oxymethyl]imidazo[1,2-b][1,2,4]triazine] | 100 to 500 nM
Fc1ccc(-c2cnc3nc(COc4ccc(F)cn4)cn3c2)cc1 [Example 129, 6-(4-fluorophenyl)-2-[(5-fluoro-2-pyridyl)oxymethyl)imidazo[1,2-a]pyrimidine] | 500 to 1000 nM
COc1cc(F)ccc1-c1cnc2nc(COc3cccc(F)c3)cn2c1 [Example 42, 6-(4-fluoro-2-methoxyphenyl)-2-(3-fluorophenoxymethyl)imidazo[1,2-a]pyrimidine] | 500 to 1000 nM
OCc1cc(F)ccc1-c1cnc2nc(COc3ccnc(F)c3)cn2c1 [Example 170, 6-(4-fluoro-2-hydroxymethylphenyl)-2-(2-fluoropyridin-4-yloxymethyl)imidazo[1,2-a]pyrimidine] | 100 to 500 nM
Fc1cccc(-c2cnc3nc(COc4ccccc4)cn3c2)c1F [Example 7, 6-(2,3-difluorophenyl)-2-phenoxymethylimidazo[1,2-a]pyrimidine] | 100 to 500 nM
CSc1cc(F)ccc1-c1cnc2nc(COc3ccccc3)cn2c1 [Example 26, 6-(4-fluoro-2-methylthiophenyl)-2-phenoxymethylimidazo[1,2-a]pyrimidine] | 100 to 500 nM
Oc1ccccc1-c1cnc2nc(COc3ccc(F)cc3)cn2c1 [Example 63, 2-[2-[(4-fluorophenoxy)methyl]imidazo[1,2-a]pyrimidin-6-yl]phenol] | 100 to 500 nM
Fc1ccc(-c2cnc3nc(COc4ccccc4)cn3c2)c(F)n1 [Example 33, 6-(2,6-difluoropyridin-3-yl)-2-phenoxymethylimidazo[1,2-a]pyrimidine] | 100 to 500 nM
Fc1cccc(OCc2cn3cc(-c4ccncc4Cl)cnc3n2)c1 [Example 45, 6-(3-chloropyridin-4-yl)-2-(3-fluorophenoxymethyl)imidazo[1,2-a]pyrimidine] | 100 to 500 nM
